{
  "source": "paper PMC6270983",
  "about": "“Gastroprotective Mechanisms of Action of Semisynthetic Carnosic Acid Derivatives in Human Cells” (Molecules, 2014)",
  "key": {"MRC-5 fibroblasts": {"test_system": "MRC-5 fibroblasts", "assay": "Proliferation assay of MRC-5 fibroblasts, neutral red uptake", "format": "cell-based, human", "conditions": "4 days", "method": "Human lung fibroblasts MRC-5 (ATCC CCL-171) were grown as monolayers in minimum essential Eagle medium (MEM), with Earle’s salts, 2 mM L-glutamine and 2.2 g/L sodium bicarbonate, supplemented with 10% heat-inactivated fetal bovine serum (FBS), 100 IU/mL penicillin and 100 µg/mL streptomycin in a humidified incubator with 5% CO2 in air at 37 °C. For the subsequent experiments, cells were plated at a density of 2.5 × 10^4 cells/mL in 96-well plates.\nUntreated cells were used as controls. Cell viability was determined at the end of the incubation by means of the NRU assay. The neutral red concentration was 0.05 mg/mL [4, 33]."}, "[1]": {"test_system": "human erythrocyte membranes", "assay": "Inhibition of lipoperoxidation in erythrocyte membranes", "format": "biochemical", "method": "The inhibition of lipid peroxidation was determined using human erythrocyte membranes. The products were tested at 500 µg/mL."}, "AGS cells [2]": {"test_system": "AGS cells", "assay": "Sodium taurocholate (NaT)-induced damage to AGS cells, viability by neutral red uptake", "conditions": "60 min pre-treatment, then 10 mM NaT 30 min", "experimental": "The model of AGS cells damaged by sodium taurocholate (NaT) was used to determine the gastroprotective effect of the compounds against the bile-induced injury on the gastric mucosa [10].\nThe effect of sodium taurocholate (NaT) on cell viability was determined according to Romano et al. [10]. […] Then, 10 mM NaT was added to all wells for 30 min. Un-treated cells were used as controls. Sucralfate (4 mg/mL) was used as reference compound. After incubation, the neutral red uptake (NRU, 0.05 mg/mL) assay was carried out to determine cell viability [4, 33]."}, "AGS cells [3]": {"test_system": "AGS cells", "assay": "Cellular reduced glutathione (GSH) content in AGS cells co-incubated with 4% ethanol", "format": "cell-based, human", "conditions": "12 h; for percent increase of GSH content compared with untreated controls: AGS cells"}, "AGS cells [4]": {"test_system": "AGS cells", "assay": "Prostaglandin E2 (PGE2) content of AGS cells, enzyme immunoassay", "format": "cell-based, human"}},
  "data": [
    {"smiles": "CCCOc1c(OC)c(C(C)C)cc2c1[C@@]1(C(=O)OC)CCCC(C)(C)C1CC2", "note": "(stereo partly shown) [Compound 16]", "values": [
      {"measurement": "growth stimulation compared to untreated controls", "setting": "MRC-5 fibroblasts; 12 µM", "result": 8, "unit": "%"},
      {"measurement": "growth stimulation compared to untreated controls", "setting": "MRC-5 fibroblasts; 24 µM", "result": 18, "unit": "%"},
      {"measurement": "Inhibition of the lipoperoxidation, percent effect at 500 µg/mL", "setting": "[1]", "result": 46, "unit": "%"}
    ]},
    {"smiles": "CC(=O)Oc1c(C(C)C)cc2c(c1OC(C)=O)[C@@]1(C(=O)O)CCCC(C)(C)C1CC2", "note": "(stereo partly shown) [Compound 3]", "values": [
      {"measurement": "Inhibition of the lipoperoxidation, percent effect at 500 µg/mL", "setting": "[1]", "result": 11, "unit": "%"},
      {"measurement": "percent cytoprotective effect compared to NaT control", "setting": "AGS cells [2]; 10.5 µM", "result": 13, "unit": "%"},
      {"measurement": "percent cytoprotective effect compared to NaT control", "setting": "AGS cells [2]; 21 µM", "result": 15, "unit": "%"},
      {"measurement": "percent cytoprotective effect compared to NaT control", "setting": "AGS cells [2]; 42 µM", "result": 13, "unit": "%"}
    ]},
    {"smiles": "CC(C)c1cc2c(c(O)c1O)[C@@]1(C(=O)O)CCCC(C)(C)[C@@H]1CC2", "note": "[CA, Carnosic acid]", "values": [
      {"measurement": "percent increase of GSH content compared with untreated controls", "setting": "AGS cells [3]; 4.5 µM", "result": 19, "unit": "%"},
      {"measurement": "Inhibition of the lipoperoxidation, IC50", "setting": "[1]", "result": "IC50 2.4 ± 0.18 µg/mL"},
      {"measurement": "percent cytoprotective effect compared to NaT control", "setting": "AGS cells [2]; 6 µM", "result": 23, "unit": "%"},
      {"measurement": "percent cytoprotective effect compared to NaT control", "setting": "AGS cells [2]; 12 µM", "result": 22, "unit": "%"}
    ]},
    {"smiles": "COC(=O)[C@]12CCCC(C)(C)C1CCc1cc(C(C)C)c(OC(=O)c3ccccc3)c(OC(=O)c3ccccc3)c12", "note": "(stereo partly shown) [Compound 9]", "values": [
      {"measurement": "Inhibition of the lipoperoxidation, IC50", "setting": "[1]", "result": "IC50 147.2 ± 16.6 µg/mL"}
    ]},
    {"smiles": "COC(=O)[C@]12CCCC(C)(C)C1CCc1cc(C(C)C)c(OC(=O)Cc3ccccc3)c(OC(=O)Cc3ccccc3)c12", "note": "(stereo partly shown) [Compound 11]", "values": [
      {"measurement": "Inhibition of the lipoperoxidation, IC50", "setting": "[1]", "result": "IC50 140.4 ± 12.6 µg/mL"},
      {"measurement": "percent cytoprotective effect compared to NaT control", "setting": "AGS cells [2]; 62.5 µM", "result": 12, "unit": "%"}
    ]},
    {"smiles": "COC(=O)[C@]12CCCC(C)(C)C1CCc1cc(C(C)C)c(OC(=O)Cc3c[nH]c4ccccc34)c(OC(=O)Cc3c[nH]c4ccccc34)c12", "note": "(stereo partly shown) [Compound 12]", "values": [
      {"measurement": "Inhibition of the lipoperoxidation, percent effect at 500 µg/mL", "setting": "[1]", "result": 38, "unit": "%"}
    ]},
    {"smiles": "COC(=O)[C@]12CCCC(C)(C)C1CCc1cc(C(C)C)c(OC(=O)C(C)C)c(O)c12", "note": "(stereo partly shown) [Compound 8]", "values": [
      {"measurement": "Inhibition of the lipoperoxidation, IC50", "setting": "[1]", "result": "IC50 13.6 ± 1.48 µg/mL"}
    ]},
    {"smiles": "CCCOC(=O)[C@]12CCCC(C)(C)C1CCc1cc(C(C)C)c(OC)c(OCCC)c12", "note": "(stereo partly shown) [Compound 18]", "values": [
      {"measurement": "stimulation of fibroblast proliferation compared to untreated controls", "setting": "MRC-5 fibroblasts; 32 µM", "result": 16, "unit": "%"},
      {"measurement": "stimulation of fibroblast proliferation compared to untreated controls", "setting": "MRC-5 fibroblasts; 63 µM", "result": 22, "unit": "%"}
    ]},
    {"smiles": "COC(=O)[C@]12CCCC(C)(C)C1CCc1cc(C(C)C)c(OC(=O)CCCc3c[nH]c4ccccc34)c(O)c12", "note": "(stereo partly shown) [Compound 13, 12-O-indolebutyrylmethylcarnosate]", "values": [
      {"measurement": "percent increase of GSH content compared with untreated controls", "setting": "AGS cells [3]; 2.0 µM", "result": 11, "unit": "%"},
      {"measurement": "increase of PGE2 content compared to controls", "setting": "AGS cells [4]; 20 µM, AGS cells", "result": 2.7, "unit": "fold"},
      {"measurement": "Inhibition of the lipoperoxidation, percent effect at 500 µg/mL", "setting": "[1]", "result": 49, "unit": "%"},
      {"measurement": "percent cytoprotective effect compared to NaT control", "setting": "AGS cells [2]; 2.5 µM", "result": 12, "unit": "%"},
      {"measurement": "percent cytoprotective effect compared to NaT control", "setting": "AGS cells [2]; 5 µM", "result": 8, "unit": "%"}
    ]},
    {"smiles": "COc1ccc2c(c1)c(CC(=O)O)c(C)n2C(=O)c1ccc(Cl)cc1", "note": "[Indomethacin, reference compound]", "values": [
      {"measurement": "PGE2", "setting": "AGS cells [4]; 100 µM, 1 h, control 24.9 ± 2.1", "result": "8.5 ± 1.3", "unit": "pg/mL"}
    ]},
    {"smiles": "CCC(=O)Oc1c(C(C)C)cc2c(c1O)[C@@]1(C(=O)OC)CCCC(C)(C)C1CC2", "note": "(stereo partly shown) [Compound 6]", "values": [
      {"measurement": "Inhibition of the lipoperoxidation, percent effect at 500 µg/mL", "setting": "[1]", "result": 42, "unit": "%"}
    ]},
    {"smiles": "COC(=O)[C@]12CCCC(C)(C)C1CCc1cc(C(C)C)c(OC)c(OC)c12", "note": "(stereo partly shown) [Compound 2]", "values": [
      {"measurement": "Inhibition of the lipoperoxidation, percent effect at 500 µg/mL", "setting": "[1]", "result": 53, "unit": "%"}
    ]},
    {"smiles": "COC(=O)[C@]12CCCC(C)(C)C1CCc1cc(C(C)C)c(OC)c(OC(C)=O)c12", "note": "(stereo partly shown) [Compound 17]", "values": [
      {"measurement": "stimulation of fibroblast proliferation compared to untreated controls", "setting": "MRC-5 fibroblasts; 23 µM", "result": 7, "unit": "%"}
    ]},
    {"smiles": "COC(=O)[C@]12CCCC(C)(C)C1CCc1cc(C(C)C)c(OC(=O)CCl)c(OC(=O)CCl)c12", "note": "(stereo partly shown) [Compound 5]", "values": [
      {"measurement": "Inhibition of the lipoperoxidation, IC50", "setting": "[1]", "result": "IC50 27.6 ± 3.0 µg/mL"},
      {"measurement": "percent cytoprotective effect compared to NaT control", "setting": "AGS cells [2]; 1.1 µM", "result": 17, "unit": "%"},
      {"measurement": "percent cytoprotective effect compared to NaT control", "setting": "AGS cells [2]; 2.3 µM", "result": 15, "unit": "%"},
      {"measurement": "percent cytoprotective effect compared to NaT control", "setting": "AGS cells [2]; 4.5 µM", "result": 8, "unit": "%"}
    ]},
    {"smiles": "COC(=O)[C@]12CCCC(C)(C)C1CCc1cc(C(C)C)c(OC)c(O)c12", "note": "(stereo partly shown) [Compound 15, 12-O-metylmethylcarnosate]", "values": [
      {"measurement": "percent increase of GSH content compared with untreated controls", "setting": "AGS cells [3]; 4.5 µM", "result": 11, "unit": "%"},
      {"measurement": "Inhibition of the lipoperoxidation, IC50", "setting": "[1]", "result": "IC50 165.0 ± 14.9 µg/mL"}
    ]},
    {"smiles": "CCCC(=O)Oc1c(C(C)C)cc2c(c1OC(=O)CCC)[C@@]1(C(=O)OC)CCCC(C)(C)C1CC2", "note": "(stereo partly shown) [Compound 7]", "values": [
      {"measurement": "stimulation of fibroblast proliferation compared to untreated controls", "setting": "MRC-5 fibroblasts; 16 µM", "result": 8, "unit": "%"},
      {"measurement": "Inhibition of the lipoperoxidation, percent effect at 500 µg/mL", "setting": "[1]", "result": 34, "unit": "%"}
    ]},
    {"smiles": "COC(=O)[C@]12CCCC(C)(C)C1CCc1cc(C(C)C)c(OC(=O)c3cccnc3)c(OC(=O)c3cccnc3)c12", "note": "(stereo partly shown) [Compound 10, 11,12-O-dinicotinylmethylcarnosate]", "values": [
      {"measurement": "percent increase of GSH content compared with untreated controls", "setting": "AGS cells [3]; 1.4 µM", "result": 14, "unit": "%"},
      {"measurement": "Inhibition of the lipoperoxidation, percent effect at 500 µg/mL", "setting": "[1]", "result": 22, "unit": "%"}
    ]},
    {"smiles": "O.Oc1cc(O)c2c(c1)O[C@H](c1ccc(O)c(O)c1)[C@@H](O)C2", "note": "[Catechin, reference compound]", "values": [
      {"measurement": "Inhibition of the lipoperoxidation, IC50", "setting": "[1]", "result": "IC50 75.4 ± 6.0 µg/mL"}
    ]},
    {"smiles": "COc1c(C(C)C)cc2c(c1O)[C@@]1(C(=O)O)CCCC(C)(C)C1CC2", "note": "(stereo partly shown) [Compound 14, 12-O-methylcarnosic acid]", "values": [
      {"measurement": "percent increase of GSH content compared with untreated controls", "setting": "AGS cells [3]; 2.3 µM", "result": 8, "unit": "%"},
      {"measurement": "Inhibition of the lipoperoxidation, IC50", "setting": "[1]", "result": "IC50 186.3 ± 16.9 µg/mL"},
      {"measurement": "percent cytoprotective effect compared to NaT control", "setting": "AGS cells [2]; 2.8 µM", "result": 12, "unit": "%"},
      {"measurement": "percent cytoprotective effect compared to NaT control", "setting": "AGS cells [2]; 5.6 µM", "result": 5, "unit": "%"}
    ]},
    {"smiles": "COC(=O)[C@]12CCCC(C)(C)C1CCc1cc(C(C)C)c(O)c(O)c12", "note": "(stereo partly shown) [Compound 1]", "values": [
      {"measurement": "Inhibition of the lipoperoxidation, IC50", "setting": "[1]", "result": "IC50 34.4 ± 4.1 µg/mL"},
      {"measurement": "percent cytoprotective effect compared to NaT control", "setting": "AGS cells [2]; 3 µM", "result": 13, "unit": "%"}
    ]},
    {"smiles": "CC(=O)N[C@@H](CS)C(=O)O", "note": "[NAC, N-acetyl-L-cysteine, reference compound]", "values": [
      {"measurement": "GSH (nmol/10^6 cells)", "setting": "AGS cells [3]; 750 µM, control 3.6 ± 0.2", "result": "4.0 ± 0.2", "unit": "nmol/10^6 cells"},
      {"measurement": "percent increase of GSH content compared with untreated controls", "setting": "AGS cells [3]; 750 µM", "result": 11, "unit": "%"}
    ]}
  ]
}
